# Source: ChEMBL document CHEMBL5236599, “Design, synthesis and biological evaluation of cajanonic acid A analogues as potent PPAR γ antagonists” (Bioorg Med Chem Lett, 2023)
# Experiments:
# [1] = Induction of insulin-sensitizing activity in insulin-resistant human HepG2 cells assessed as increase in glucose consumption at 0.1 uM relative to control; type: functional
# [2] = Induction of insulin-sensitizing activity in insulin-resistant human HepG2 cells assessed as glucose consumption at 0.1 uM (reference value: 5.83 +/-0.101 mM); type: functional
# [3] = target: T1, Peroxisome proliferator-activated receptor gamma (Homo sapiens) (UniProt P37231); assay: Antagonist activity at PPAR-gamma (unknown origin) transfected in human HEK293 cells assessed as decrease in rosiglitazone-induced receptor transactivation at 10 uM by dual-luciferase reporter gene assay relative to control; type: cell-based
# T1 sequence (whole entry): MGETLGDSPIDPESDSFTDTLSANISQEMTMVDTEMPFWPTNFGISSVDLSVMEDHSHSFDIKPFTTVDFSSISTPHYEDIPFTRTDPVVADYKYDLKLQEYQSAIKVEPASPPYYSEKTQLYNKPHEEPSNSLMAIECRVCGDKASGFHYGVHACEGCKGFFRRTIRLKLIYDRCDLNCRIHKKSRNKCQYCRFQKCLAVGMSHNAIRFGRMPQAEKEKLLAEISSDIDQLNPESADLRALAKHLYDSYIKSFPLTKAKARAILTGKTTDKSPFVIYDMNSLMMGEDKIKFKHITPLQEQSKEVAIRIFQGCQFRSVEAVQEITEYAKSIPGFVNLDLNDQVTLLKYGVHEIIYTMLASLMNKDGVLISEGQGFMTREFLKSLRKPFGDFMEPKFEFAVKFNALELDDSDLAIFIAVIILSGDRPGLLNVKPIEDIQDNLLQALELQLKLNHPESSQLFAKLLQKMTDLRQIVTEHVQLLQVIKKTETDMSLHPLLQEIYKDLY
# [4] = Induction of insulin-sensitizing activity in insulin-resistant mouse 3T3-L1 cells assessed as increase in glucose consumption at 0.1 uM relative to control; type: functional
# [5] = target: T1, Peroxisome proliferator-activated receptor gamma (Homo sapiens); assay: Antagonist activity at PPAR-gamma (unknown origin) transfected in human HEK293 cells assessed as decrease in rosiglitazone-induced receptor transactivation at 1 uM by dual-luciferase reporter gene assay relative to control; type: cell-based
# [6] = Induction of insulin-sensitizing activity in insulin-resistant mouse 3T3-L1 cells assessed as glucose consumption at 0.1 uM (reference value: 3.354 +/- 0.342 mM); type: functional
# [7] = Cytotoxicity against human HepG2 cells assessed as cell viability at 0.1 uM; type: toxicity, cell-based; conditions: read-out: Activity
# [8] = Cytotoxicity against mouse 3T3-L1 cells assessed as cell viability at 0.1 uM; type: toxicity, cell-based; conditions: read-out: Activity
# Mus musculus = species: Mus musculus; assay: Hypoglycemic activity in db/db mouse assessed as AUC of blood glucose level by oral glucose tolerance test (reference value: 114.8 mmol.min/L); type: functional
SMILES,Activity [1] [%],Activity [2] [mM],inhibition ([3]; filed as antagonist) [%],Activity [4] [%],inhibition [5] [%],Activity [6] [mM],viability at 0.1 µM [7] [%],inhibition [3] [%],viability at 0.1 µM [8] [%],AUC (Mus musculus) [mmol·min/L]
COc1cc(CC(=O)c2cccc(-c3cccc(C(F)(F)F)c3)c2)c(C(=O)O)c(O)c1CC=C(C)C,48.32,8.649,50.9,37.4,-6.1,5.151,,,,
COc1cc(O)c(C(=O)O)c(CC(=O)c2cccc(-c3ccsc3)c2)c1CC=C(C)C,3.71,6.047,43.7,70.82,24.3,6.404,< 80,,,
COc1cc(CC(=O)c2cccc(-c3ccc(C)cc3)c2)c(C(=O)O)c(O)c1CC=C(C)C,35.25,7.886,,105.7,,7.712,,,,
COc1cc(CC(=O)c2cccc(-c3ccsc3)c2)c(C(=O)O)c(O)c1CC=C(C)C,39.36,8.126,47.7,117.26,7.7,8.145,,,,
CN(CCOc1ccc(CC2SC(=O)NC2=O)cc1)c1ccccn1 (stereo not given) [ROSIGLITAZONE],22.74,7.15,,44.58,,5.421,,,,
COc1cc(CC(=O)c2cccc(-c3ccccc3Cl)c2)c(C(=O)O)c(O)c1CC=C(C)C,43.55,8.371,57.5,59.21,24.1,5.969,,,,
COc1cc(O)c(C(=O)O)c(CC(=O)c2cccc(-c3ccc(F)cc3)c2)c1CC=C(C)C,29.73,7.564,66,77.02,16,6.637,,,,
COc1cc(O)c(C(=O)O)c(CC(=O)c2cccc(-c3cccnc3)c2)c1CC=C(C)C,1.49,5.917,82.5,-17.14,-3.8,3.107,< 80,,,
COc1cc(CC(=O)c2cccc(C3CC3)c2)c(C(=O)O)c(O)c1CC=C(C)C,14.83,6.696,77.7,51.66,17.7,5.686,,,,
COc1ccc(-c2cccc(C(=O)Cc3c(CC=C(C)C)c(OC)cc(O)c3C(=O)O)c2)c(F)c1,18.83,6.928,84.7,95.64,-0.4,7.335,,,,
COc1ccc(-c2cccc(C(=O)Cc3c(CC=C(C)C)c(OC)cc(O)c3C(=O)O)c2)cc1,24.38,7.252,79.5,105.12,36.9,7.69,,,,
CCc1ccc(-c2cccc(C(=O)Cc3cc(OC)c(CC=C(C)C)c(O)c3C(=O)O)c2)cc1,36.01,7.93,,87.84,,7.042,,8.1,,
COc1cc(O)c(C(=O)O)c(CC(=O)c2cccc(-c3ccc(Cl)cc3)c2)c1CC=C(C)C,38.76,8.091,71,93.55,19.3,7.257,,,,
COc1cc(CC(=O)c2cccc(-c3ccnc(Cl)c3)c2)c(C(=O)O)c(O)c1CC=C(C)C,25.88,7.34,,46.74,12.7,5.501,,11.1,,
COc1cc(CC(=O)c2cccc(-c3cccnc3)c2)c(C(=O)O)c(O)c1CC=C(C)C,18.84,6.93,,21.46,,4.554,< 80,31.7,,
COc1cc(O)c(C(=O)O)c(CC(=O)c2cccc(C3CC3)c2)c1CC=C(C)C,2.94,6.002,81.2,36,34.6,5.099,,,,

SMILES,Activity [1] [%],Activity [2] [mM],inhibition ([3]; filed as antagonist) [%],Activity [4] [%],inhibition [5] [%],Activity [6] [mM],viability at 0.1 µM [7] [%],inhibition [3] [%],viability at 0.1 µM [8] [%],AUC (Mus musculus) [mmol·min/L]
COc1cc(O)c(C(=O)O)c(CC(=O)c2cccc(-c3ccnc(Cl)c3)c2)c1CC=C(C)C,8.36,6.318,92.3,48.82,19.9,5.579,< 80,,,
COc1ccc(-c2cccc(C(=O)Cc3cc(OC)c(CC=C(C)C)c(O)c3C(=O)O)c2)c(F)c1,37.05,7.992,,75.81,,6.591,,16.4,,
COc1cc(CC(=O)c2cccc(-c3ccccc3C(F)(F)F)c2)c(C(=O)O)c(O)c1CC=C(C)C,43.51,8.368,40.5,15.58,,4.333,,,< 50,
CCc1ccc(CCOc2ccc(CC3SC(=O)NC3=O)cc2)nc1 (stereo not given) [PIOGLITAZONE],,,,,,,,,,94.8
COc1cc(O)c(C(=O)O)c(CC(=O)c2ccccc2)c1CC=C(C)C,20.66,6.729,,,12.9,,,39,,
CCc1ccc(-c2cccc(C(=O)Cc3c(CC=C(C)C)c(OC)cc(O)c3C(=O)O)c2)cc1,40.66,8.202,60.2,77.5,-8.3,6.655,,,,
COc1cc(CC(=O)c2cccc(-c3ccc(F)cc3)c2)c(C(=O)O)c(O)c1CC=C(C)C,-10.9,5.195,,-0.2,,3.741,,,< 50,
COc1cc(O)c(C(=O)O)c(CC(=O)c2cccc(-c3ccccc3C(F)(F)F)c2)c1CC=C(C)C,41.5,8.251,80.1,51.71,,5.688,,,,
O=C(Nc1ccccc1)c1cc([N+](=O)[O-])ccc1Cl,,,99.1,,10.9,,,,,
COc1cc(O)c(C(=O)O)c(CC(=O)c2cccc(-c3cncnc3)c2)c1CC=C(C)C,5.76,6.171,55,-11.08,11.5,3.405,< 80,,,
COc1cc(O)c(C(=O)O)c(CC(=O)c2cccc(-c3cccc(C(F)(F)F)c3)c2)c1CC=C(C)C,42.45,8.306,,71.43,-2.4,6.427,,39.6,,
COc1ccc(-c2cccc(C(=O)Cc3cc(OC)c(CC=C(C)C)c(O)c3C(=O)O)c2)cc1,27.56,7.438,,100.93,,7.533,,20.8,,
COc1cc(CC(=O)c2cccc(-c3cncnc3)c2)c(C(=O)O)c(O)c1CC=C(C)C,10.28,6.43,,9.11,4.6,4.09,< 80,10.3,,
COc1cc(CC(=O)c2cccc(-c3ccc(Cl)cc3)c2)c(C(=O)O)c(O)c1CC=C(C)C,39.56,8.138,,91.12,,7.165,,26.6,,
COc1cc(O)c(C(=O)O)c(CC(=O)c2cccc(-c3ccc(C)cc3)c2)c1CC=C(C)C,28.49,7.492,64.5,99.73,23.9,7.488,,,,
